{
  "source": "paper PMC7570888",
  "about": "(Molecules, 2020)",
  "key": {"MT1": {"target": "MT1", "details": "cited from earlier work"}, "MT2": {"target": "MT2", "details": "cited from earlier work"}, "human MT1 receptor [1]": {"target": "T1, human MT1 receptor (Homo sapiens, UniProt P48039)", "T1 construct": "expressed in transfected cells; host or cells: NIH3T3 fibroblast cells, stably transfected; membranes used", "T1 sequence (P48039 whole entry)": "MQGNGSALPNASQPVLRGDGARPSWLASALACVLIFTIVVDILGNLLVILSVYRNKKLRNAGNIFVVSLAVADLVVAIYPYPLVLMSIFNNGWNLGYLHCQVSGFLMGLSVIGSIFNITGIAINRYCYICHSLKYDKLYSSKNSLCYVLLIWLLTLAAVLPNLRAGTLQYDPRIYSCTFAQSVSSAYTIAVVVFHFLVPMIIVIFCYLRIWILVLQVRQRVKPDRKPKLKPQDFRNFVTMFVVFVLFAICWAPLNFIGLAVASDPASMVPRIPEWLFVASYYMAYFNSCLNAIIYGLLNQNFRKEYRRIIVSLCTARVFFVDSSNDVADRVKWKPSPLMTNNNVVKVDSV", "assay": "2-[125I]iodomelatonin competition binding, human MT1 in NIH3T3 cell membranes", "details": "2-[125I]iodomelatonin 100 pM, 90 min 37 °C; Cheng-Prusoff; mean of at least three determinations in duplicate; read-out: hMT1 pKi (±SD) (converted)", "description": "(§1) The newly synthesized alpha- and beta-methyl N-anilinoethylamides were evaluated for their binding affinity at human MT1 and MT2 receptors stably transfected in NIH3T3 cells using 2-[^125I]iodomelatonin as radiolabelled ligand.\n(§2) Binding affinities were determined using 2- [^125I]iodomelatonin as the labeled ligand in competition experiments on cloned human MT1 and MT2 receptors expressed in NIH3T3 […] fibroblast cells. The characterization of NIH3T3-MT1 and -MT2 cells had been already described in detail. Membranes were incubated for 90 min at 37 °C in binding buffer (Tris-HCl, 50 mM, pH 7.4). The final membrane concentration was 5−10 μg of protein per tube. The membrane protein level was determined in accordance with a previously reported method. […] The pKi values were calculated from the IC50 values in accordance with the Cheng−Prusoff equation [21]. The pKi values are the mean of at least three independent determinations performed in duplicate."}, "human MT2 receptor [2]": {"target": "T2, human MT2 receptor (Homo sapiens, UniProt P49286)", "T2 construct": "expressed in transfected cells; host or cells: NIH3T3 fibroblast cells, stably transfected; membranes used", "T2 sequence (P49286 1-362)": "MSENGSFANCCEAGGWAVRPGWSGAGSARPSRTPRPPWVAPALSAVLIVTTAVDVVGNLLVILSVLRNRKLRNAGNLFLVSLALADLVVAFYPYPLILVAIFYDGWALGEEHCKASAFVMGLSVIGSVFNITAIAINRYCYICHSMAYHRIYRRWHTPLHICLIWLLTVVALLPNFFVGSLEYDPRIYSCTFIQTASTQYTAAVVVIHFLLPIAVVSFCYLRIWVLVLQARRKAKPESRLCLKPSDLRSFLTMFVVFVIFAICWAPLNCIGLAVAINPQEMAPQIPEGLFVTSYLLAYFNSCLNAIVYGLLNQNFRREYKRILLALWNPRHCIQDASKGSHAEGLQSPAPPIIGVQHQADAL", "assay": "2-[125I]iodomelatonin competition binding, human MT2 in NIH3T3 cell membranes", "details": "2-[125I]iodomelatonin 100 pM, 90 min 37 °C; Cheng-Prusoff; mean of at least three determinations in duplicate; read-out: hMT2 pKi (±SD) (converted)", "description": "as §1, §2"}, "human MT1 receptor [3]": {"target": "T1, human MT1 receptor", "details": "relative to melatonin; cited from earlier work"}, "human MT2 receptor [4]": {"target": "T2, human MT2 receptor", "details": "relative to melatonin; cited from earlier work"}},
  "note": "Marks after values point to notes of the source that are not given here.",
  "data": [
    {"smiles": "COc1cccc(O[C@@H](C)CNC(C)=O)c1", "note": "[compound 2, (S)-N-[2-(3-methoxyphenoxy)propyl]acetamide]", "values": [
      {"measurement": "pKi(MT1)", "setting": "MT1", "result": 8.77},
      {"measurement": "pKi(MT2)", "setting": "MT2", "result": 8.33}
    ]},
    {"smiles": "COc1cccc(N(C)CCNC(C)=O)c1", "note": "[compound 3, N-{2-[(3-methoxyphenyl)methylamino]ethyl}acetamide]", "values": [
      {"measurement": "Ki", "setting": "human MT1 receptor [1]", "result": 1.74, "unit": "nM"},
      {"measurement": "Ki", "setting": "human MT2 receptor [2]", "result": 2.24, "unit": "nM"},
      {"measurement": "hMT1 IA, relative intrinsic activity", "setting": "human MT1 receptor [3]", "result": "0.95 ^c"},
      {"measurement": "hMT2 IA, relative intrinsic activity", "setting": "human MT2 receptor [4]", "result": "1.06 ^c"}
    ]},
    {"smiles": "CCC(=O)NC[C@H](CO)c1cccc2ccc(OC)cc12", "note": "[compound 1, (R)-N-[3-hydroxy-2-(7-methoxynaphthalen-1-yl)propyl]propanamide]", "values": [
      {"measurement": "pKi(MT1)", "setting": "MT1", "result": 8.47},
      {"measurement": "pKi(MT2)", "setting": "MT2", "result": 9.50}
    ]},
    {"smiles": "COc1cc2c([C@@H](C)CNC(C)=O)c[nH]c2cc1Cl", "note": "[TIK-301, (R)-β-methyl-6-chloro-melatonin]", "values": [
      {"measurement": "Ki", "setting": "MT1", "result": 0.081, "unit": "nM"},
      {"measurement": "Ki", "setting": "MT2", "result": 0.042, "unit": "nM"}
    ]}
  ]
}
